For the assay, the target named is T1, human APJ receptor (hAPJ) (Homo sapiens, UniProt P35414).
T1 construct: expressed in transfected cells
T1 sequence (P35414 1-380): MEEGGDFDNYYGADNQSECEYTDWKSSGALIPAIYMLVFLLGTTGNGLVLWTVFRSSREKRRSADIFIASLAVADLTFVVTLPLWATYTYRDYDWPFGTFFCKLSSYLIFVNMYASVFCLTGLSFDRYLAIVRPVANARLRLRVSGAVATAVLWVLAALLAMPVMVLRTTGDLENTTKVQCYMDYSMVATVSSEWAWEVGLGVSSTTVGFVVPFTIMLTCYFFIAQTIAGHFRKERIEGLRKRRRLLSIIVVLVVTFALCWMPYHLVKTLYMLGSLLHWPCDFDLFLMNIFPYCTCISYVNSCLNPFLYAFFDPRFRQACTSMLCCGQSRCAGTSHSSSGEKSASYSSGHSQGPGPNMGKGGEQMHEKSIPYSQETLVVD
Description: HTRF cAMP assay: inhibition of NKH477-stimulated cAMP in HEK cells stably expressing hAPJ. The format is cell-based. The note with it: for % IA (cAMP inhibition, hAPJ HEK): intrinsic activity; for Ranking: composite class of EC50 (hAPJ), % IA and % histamine or formal (+) charge; for Emax: HEK293, read-out: % IA, bound stated; for inhibition of NKH477-stimulated increase in cAMP, dose dependent: concentration response curves, FIGS. 1 and 2, HEK cells stably expressing APJ. The source says:
HTRF cAMP Assay and IP-One Assay (Cisbio)
HTRF (homogeneous time resolved fluorescence) is a technology developed by Cisbio Bioassays based on TR-FRET (time-resolved fluorescence resonance energy transfer). Cisbio Bioassays has developed a wide selection of HTRF-based assays compatible with whole cells, thereby enabling functional assays to run under more physiological conditions. The IP-One assays are competitive immunoassays using cryptate-labeled anti-IP1 monoclonal antibody and d2-labeled IP1. IP1 is a relatively stable downstream metabolite of IP3, and accumulates in cells following Gq receptor activation.
cAMP kits based on a competitive immunoassay using cryptate-labeled anti-cAMP antibody and d2-labeled cAMP were used to assay the effects of APJ compounds of the present invention. […] Cells are treated with 1 nG/mL doxycycline and seeded in all white 96 well plates @40 k/well overnight.
A general note: Time-resolved FRET reads energy transfer from a long-lived donor to a nearby acceptor.

Where [1] appears, read: Table 6, hAPJ HEK cells, NKH477-stimulated cAMP, read-out: EC50 (cAMP inhibition, hAPJ HEK).
Setting [2] is: EC50 (cAMP inhibition, hAPJ HEK), Table 6, hAPJ HEK cells, NKH477-stimulated cAMP.
The mark [3] stands for this setting: EC50 (hAPJ), inhibition of cAMP production, bound stated, HTRF cAMP Assay, per data of Table 6.
Setting [4] is: HTRF cAMP Assay, per data of Table 6.
The mark [5] stands for this setting: HTRF cAMP Assay, per data of Table 6, read-out: EC50 (hAPJ), inhibition of cAMP production, bound stated.

These results are taken from US20160159861A1, “APJ Receptor Compounds” (priority 2013, published 2016).

Like-named read-outs stand apart in the source and are kept apart here. Peptide text beside a SMILES is read from it. Where only a bound is given, the exact number is not on record here.

What is called EC50 is the concentration at which the effect is half-maximal. Turning to `CCCCCCCCCCCCCCCC(=O)N[C@H](C(=O)N[C@H](C(=O)N[C@@H](CC(=O)O)C(=O)N[C@@H](CCCNC(=N)N)C(=O)N[C@@H](CO)C(=O)N[C@@H](CO)C(=O)N[C@@H](CCCNC(=N)N)C(=O)N[C@@H](CCC(=O)O)C(=O)N[C@H](CCCCN)C(=O)N[C@@H](CCCNC(=N)N)C(=O)N[C@@H](CCCNC(=N)N)C(=O)N[C@@H](CCC(=O)O)C(=O)N[C@@H](CO)C(=O)N[C@@H](C)C(=O)N[C@@H](CC(=O)O)C(=O)N[C@H](C(=O)N[C@@H](Cc1ccccc1)C(=O)N[C@H](C(N)=O)[C@@H](C)CC)[C@@H](C)CC)C(C)C)[C@@H](C)O` [Compound 5] (HELM PEPTIDE1{[CCCCCCCCCCCCCCCC(=O)[*:2]].T.V.D.R.S.S.R.E.[dK].R.R.E.S.A.D.I.F.I.[am]}$$$$V2.0), the Ranking entry is reported as “* (EC50≦50 nM (hAPJ), % IA<50%)”. Further, the EC50 under setting [1] stood at 40 nM. For the setting “Table 6, hAPJ HEK cells”, the “% IA (cAMP inhibition, hAPJ HEK)” value is recorded as 41%.
Turning to `CCCCCCCCCCCCCCCC(=O)N[C@H](C(=O)N[C@H](C(=O)N[C@@H](CC(=O)O)C(=O)N[C@@H](CCCNC(=N)N)C(=O)N[C@@H](CO)C(=O)N[C@@H](CO)C(=O)N[C@@H](CCC(N)=O)C(=O)N[C@@H](CCC(=O)O)C(=O)N[C@H](CCCCN)C(=O)N[C@@H](CCCNC(=N)N)C(=O)N[C@@H](CCCNC(=N)N)C(=O)N[C@@H](CO)C(=O)N[C@@H](C)C(=O)N[C@@H](CC(=O)O)C(=O)N[C@H](C(=O)N[C@@H](Cc1ccccc1)C(=O)N[C@H](C(N)=O)[C@@H](C)CC)[C@@H](C)CC)C(C)C)[C@@H](C)O` [Compound 6] (HELM PEPTIDE1{[CCCCCCCCCCCCCCCC(=O)[*:2]].T.V.D.R.S.S.Q.E.[dK].R.R.S.A.D.I.F.I.[am]}$$$$V2.0), the Ranking result is “*** (EC50 25-50 nM (hAPJ), % IA 50-79% and either % histamine≦35% or formal (+) charge≦1)”. Under setting [2], this molecule gave an EC50 of 19 nM. This molecule yielded an EC50 under setting [3] of 25 to 50 nM. Moreover, under setting [4], the Emax was in the range of 50 to 79%. Besides, for the setting “Table 6, hAPJ HEK cells”, the “% IA (cAMP inhibition, hAPJ HEK)” value came out at 77%.
Regarding `CCCCCCCCCCCCCCCC(=O)N[C@H](C(=O)N[C@H](C(=O)N[C@@H](CC(=O)O)C(=O)N[C@@H](CCCNC(=N)N)C(=O)N[C@@H](CO)C(=O)N[C@@H](CO)C(=O)N[C@@H](CCCCN)C(=O)N[C@@H](CCC(=O)O)C(=O)N[C@H](CCCCN)C(=O)N[C@@H](CCCNC(=N)N)C(=O)N[C@@H](CCCNC(=N)N)C(=O)N[C@@H](CO)C(=O)N[C@@H](C)C(=O)N[C@@H](CC(=O)O)C(=O)N[C@H](C(=O)N[C@@H](Cc1ccccc1)C(=O)N[C@H](C(N)=O)[C@@H](C)CC)[C@@H](C)CC)C(C)C)[C@@H](C)O` [Compound 7] (HELM PEPTIDE1{[CCCCCCCCCCCCCCCC(=O)[*:2]].T.V.D.R.S.S.K.E.[dK].R.R.S.A.D.I.F.I.[am]}$$$$V2.0), the Ranking result was “*** (EC50 25-50 nM (hAPJ), % IA 50-79% and either % histamine≦35% or formal (+) charge≦1)”. Under setting [2], this molecule returned an EC50 of 9 nM. The molecule further returned an EC50 under setting [3] of 25 to 50 nM. Also, under setting [4], the Emax was in the range of 50 to 79%. The “% IA (cAMP inhibition, hAPJ HEK)” value (Table 6, hAPJ HEK cells) worked out at 59%.
For the molecule `CCCCCCCCCCCCCCCC(=O)N[C@@H](CC(=O)O)C(=O)N[C@H](C(=O)N[C@@H](Cc1ccccc1)C(=O)N[C@@H](CC(N)=O)C(=O)N[C@@H](CO)C(=O)N[C@@H](CO)C(=O)N[C@@H](CCC(=O)O)C(=O)N[C@H](CCCCN)C(=O)N[C@@H](CCCNC(=N)N)C(=O)N[C@@H](CCCNC(=N)N)C(=O)N[C@@H](CO)C(=O)N[C@@H](C)C(=O)N[C@@H](CC(=O)O)C(=O)N[C@@H](CC(N)=O)C(=O)N[C@@H](Cc1ccccc1)C(=O)N[C@H](C(N)=O)[C@@H](C)CC)C(C)C` [Compound 19] (HELM PEPTIDE1{[CCCCCCCCCCCCCCCC(=O)[*:2]].D.V.F.N.S.S.E.[dK].R.R.S.A.D.N.F.I.[am]}$$$$V2.0), the Ranking result is “*** (EC50 25-50 nM (hAPJ), % IA 50-79% and either % histamine≦35% or formal (+) charge≦1)”. Also, the Emax under setting [4] lay within 50 to 79%. Moreover, the EC50 under setting [5] lay in the range of 25 to 50 nM. In addition, the EC50 under setting [1] came out at 5 nM. Also, the “% IA (cAMP inhibition, hAPJ HEK)” value (Table 6, hAPJ HEK cells) is 67%.
Turning to `CCCCCCCCCCCCCCCC(=O)N[C@@H](CC(=O)O)C(=O)N[C@H](C(=O)N[C@@H](Cc1ccccc1)C(=O)N[C@@H](CCCNC(=N)N)C(=O)N[C@@H](CO)C(=O)N[C@@H](CO)C(=O)N[C@@H](CCC(=O)O)C(=O)N[C@H](CCCCN)C(=O)N[C@@H](CCCNC(=N)N)C(=O)N[C@@H](CCCNC(=N)N)C(=O)N[C@@H](CO)C(=O)N[C@@H](C)C(=O)N[C@@H](CC(=O)O)C(=O)N[C@@H](CC(N)=O)C(=O)N[C@@H](Cc1ccccc1)C(=O)N[C@H](C(N)=O)[C@@H](C)CC)C(C)C` [Compound 20] (HELM PEPTIDE1{[CCCCCCCCCCCCCCCC(=O)[*:2]].D.V.F.R.S.S.E.[dK].R.R.S.A.D.N.F.I.[am]}$$$$V2.0), the Ranking result is “*** (EC50 25-50 nM (hAPJ), % IA 50-79% and either % histamine≦35% or formal (+) charge≦1)”. In addition, under setting [4], the Emax fell in the range of 50 to 79%. Also, the EC50 under setting [5] is 25 to 50 nM. For the same molecule, under setting [1], the EC50 was determined as 32 nM. The “% IA (cAMP inhibition, hAPJ HEK)” value (Table 6, hAPJ HEK cells) came to 98%.
For `CCCCCCCCCCCCCCCC(=O)N[C@H](C(=O)N[C@H](C(=O)N[C@@H](CCCCN)C(=O)N[C@@H](CCCNC(=N)N)C(=O)N[C@@H](CO)C(=O)N[C@@H](CO)C(=O)N[C@@H](CCC(=O)O)C(=O)N[C@H](CCCCN)C(=O)N[C@@H](CCCNC(=N)N)C(=O)N[C@@H](CCCNC(=N)N)C(=O)N[C@@H](CO)C(=O)N[C@@H](C)C(=O)N[C@@H](CC(=O)O)C(=O)N[C@H](C(=O)N[C@@H](Cc1ccccc1)C(=O)N[C@H](C(N)=O)[C@@H](C)CC)[C@@H](C)CC)C(C)C)[C@@H](C)O` [Compound 21] (HELM PEPTIDE1{[CCCCCCCCCCCCCCCC(=O)[*:2]].T.V.K.R.S.S.E.[dK].R.R.S.A.D.I.F.I.[am]}$$$$V2.0), the Ranking result was “**** (EC50≦25 nM (hAPJ), % IA≧80% and either % histamine>35% or formal (+) charge>1)”; the “inhibition of NKH477-stimulated increase in cAMP, dose dependent” value is given as “inhibited”. The same molecule gave an EC50 under setting [2] of 9 nM. For the same molecule, under setting [3], the 50% effective concentration (EC50) is ≤ 25 nM. In addition, the Emax under setting [4] is ≥ 80%. Besides, the “% IA (cAMP inhibition, hAPJ HEK)” value (Table 6, hAPJ HEK cells) amounted to 85%.
In the case of `CCCCCCCCCCCCCCCC(=O)N[C@H](C(=O)N[C@H](C(=O)N[C@@H](Cc1ccccc1)C(=O)N(C)[C@@H](CCCNC(=N)N)C(=O)N[C@@H](CO)C(=O)N[C@@H](CO)C(=O)N[C@@H](CCC(=O)O)C(=O)N[C@H](CCCCN)C(=O)N[C@@H](CCCNC(=N)N)C(=O)N[C@@H](CCCNC(=N)N)C(=O)N[C@@H](CO)C(=O)N[C@@H](C)C(=O)N[C@@H](CC(=O)O)C(=O)N[C@H](C(=O)N[C@@H](Cc1ccccc1)C(=O)N[C@H](C(N)=O)[C@@H](C)CC)[C@@H](C)CC)C(C)C)[C@@H](C)O` [Compound 31] (HELM PEPTIDE1{[CCCCCCCCCCCCCCCC(=O)[*:2]].T.V.F.[meR].S.S.E.[dK].R.R.S.A.D.I.F.I.[am]}$$$$V2.0), the Ranking result is “** (EC50 25-50 nM (hAPJ), % IA 50-79% and either % histamine>35% or formal (+) charge>1)”. Further, the “% IA (cAMP inhibition, hAPJ HEK)” value (Table 6, hAPJ HEK cells) turned out to be 84%.
`CCCCCCCCCCCCCCCC(=O)N[C@H](C(=O)N[C@H](C(=O)N[C@@H](CC(=O)O)C(=O)N(C)[C@@H](CCCNC(=N)N)C(=O)N[C@@H](CO)C(=O)N[C@@H](CO)C(=O)N[C@@H](CCC(=O)O)C(=O)N[C@H](CCCCN)C(=O)N[C@@H](CCCNC(=N)N)C(=O)N[C@@H](CCCNC(=N)N)C(=O)N[C@@H](CO)C(=O)N[C@@H](C)C(=O)N[C@@H](CC(=O)O)C(=O)N[C@H](C(=O)N[C@@H](Cc1ccccc1)C(=O)N[C@H](C(N)=O)[C@@H](C)CC)[C@@H](C)CC)C(C)C)[C@@H](C)O` [Compound 32] (HELM PEPTIDE1{[CCCCCCCCCCCCCCCC(=O)[*:2]].T.V.D.[meR].S.S.E.[dK].R.R.S.A.D.I.F.I.[am]}$$$$V2.0): the Ranking result is “**** (EC50≦25 nM (hAPJ), % IA≧80% and either % histamine>35% or formal (+) charge>1)”; the “inhibition of NKH477-stimulated increase in cAMP, dose dependent” value is reported as “inhibited”. Besides, it took 24 nM to reach a half-maximal effect under setting [2] (EC50). For the same molecule, the concentration for a half-maximal effect (EC50) under setting [3] was ≤ 25 nM. Moreover, the Emax under setting [4] was ≥ 80%. Also, the “% IA (cAMP inhibition, hAPJ HEK)” value (Table 6, hAPJ HEK cells) was found to be 97%.
